Consider 28 compounds from patent US7838674B2, “Tetracyclic lactame derivatives” (Novartis AG, priority 2007, dated 2010).

The target in this assay is T1, MAPKAPK2 enzyme (HIS-MK2, Invitrogen PV4019) (Homo sapiens, UniProt P49137).
T1 construct: His; purchased Invitrogen PV4019
Nature of the assay: Alternative MAPKAPK2 assay (Caliper microfluidic mobility shift, HSP27-peptide). Format: biochemical. The conditions noted are these: HIS-MK2 0.013 nM, ATP 10 μM, 60 min at 30° C.

Where a name gives a salt, the structure may show the parent alone.

T1 sequence (P49137 whole entry): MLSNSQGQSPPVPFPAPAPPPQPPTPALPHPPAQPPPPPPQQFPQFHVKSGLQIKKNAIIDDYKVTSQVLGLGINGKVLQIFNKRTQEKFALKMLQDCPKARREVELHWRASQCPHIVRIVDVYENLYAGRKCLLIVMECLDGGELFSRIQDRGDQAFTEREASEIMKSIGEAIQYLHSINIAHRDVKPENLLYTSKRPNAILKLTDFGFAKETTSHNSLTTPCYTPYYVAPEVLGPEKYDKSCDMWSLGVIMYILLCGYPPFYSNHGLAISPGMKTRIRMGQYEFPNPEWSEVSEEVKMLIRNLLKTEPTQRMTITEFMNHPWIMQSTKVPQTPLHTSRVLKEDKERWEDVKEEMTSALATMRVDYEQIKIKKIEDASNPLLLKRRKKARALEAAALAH

With `CCN1CC2(C1)c1[nH]c3c(c1C(=O)NC21CC1)CCc1cnc(-c2ccccc2F)cc1-3` [Example 253, 2-[3-(1-Amino-cyclopropyl)-1-ethyl-azetidin-3-yl]-8-(2-fluoro-phenyl)-4,5-dihydro-1H-pyrrolo[2,3-f]isoquinoline-3-carboxylic acid lactam], the IC50 was 15 nM. For `Cn1c2c(c3c1-c1cc(-c4cccc(N5CCOCC5)c4)ncc1CC3)C(=O)NC1(CNC1)C2` [Example 146, 2-(3-Amino-azetidin-3-ylmethyl)-8-(3-morpholin-4-yl-phenyl)-1-methyl-4,5-dihydro-1H-pyrrolo[2,3-f]isoquinoline-3-carboxylic acid lactam hydrochloride] the value was 45 nM. For `O=C1NCC2(CCC2)c2[nH]c3c(c21)CCc1cnc(-c2ccc(CN4CCOCC4)c(F)c2)cc1-3` [Example 298, 2-(3-Fluoro-4-morpholin-4-ylmethyl-phenyl)-10-spirocyclobutyl-5,6,8,9,10,11-exahydro-3,8,11-triaza-benzo[a]fluoren-7-one] the value was 20 nM; for `Cn1c2c(c3c1C1(CNC1)CNC3=O)CCc1cnc(-c3ccc(F)nc3)cc1-2` [Example 162, 2-(3-Aminomethyl-azetidin-3-yl)-8-(6-fluoro-pyridin-3-yl)-1-methyl-4,5-dihydro-1H-pyrrolo[2,3-f]isoquinoline-3-carboxylic acid lactam hydrochloride], 20 nM.

On to `Cn1c2c(c3c1-c1nc(-c4cccc(Br)c4)ncc1CC3)C(=O)NC1(CNC1)C2` [Example 286, 2-(3-Amino-azetidin-3-ylmethyl)-8-(3-bromo-phenyl)-1-methyl-4,5-dihydro-1H-1,7,9-triaza-cyclopenta[a]naphthalene-3-carboxylic acid lactam hydrochloride], for which the IC50 came out at 48 nM. Next, `COc1ccc(-c2ncc3c(n2)-c2c(c4c(n2C)CC2(CNC2)NC4=O)CC3)cc1` [Example 131, 2-(3-Amino-azetidin-3-ylmethyl)-8-(4-methoxy-phenyl)-1-methyl-4,5-dihydro-1H-1,7,9-triaza-cyclopenta[a]naphthalene-3-carboxylic acid lactam hydrochloride]: 6 nM; `CN1CC2(CNC(=O)c3c2[nH]c2c3CCc3cnc(-c4cccc(Cl)c4)cc3-2)C1` [Example 188, 2-[3-Aminomethyl-1-methyl-azetidin-3-yl]-8-(3-chloro-phenyl)-4,5-dihydro-1H-pyrrolo[2,3-f]isoquinoline-3-carboxylic acid lactam]: below 3 nM.

For `N#Cc1cncc(-c2cc3c(cn2)CCc2c-3[nH]c3c2C(=O)NCC32CC2)c1` [Example 113, 2-(1-Aminomethyl-cyclopropyl)-8-(5-cyano-pyridin-3-yl)-4,5-dihydro-1H-pyrrolo[2,3-f]isoquinoline-3-carboxylic acid lactam], the IC50 turned out to be 23 nM.

On to `CN(C)c1ccc(-c2cc3c(cn2)CCc2c-3[nH]c3c2C(=O)NC2(CC2)C3)cn1` [Example 68, 2-(1-Amino-cyclopropylmethyl)-8-6-dimethylamino-pyridin-3-yl-4,5-dihydro-1H-pyrrolo[2,3-f]isoquinoline-3-carboxylic acid lactam], for which the IC50 turned out to be 49 nM.

Consider `O=C1NCC2(CCC2)c2[nH]c3c(c21)CCc1cnc(-c2ccc(F)nc2)cc1-3` [Example 300, 2-(6-Fluoro-pyridin-3-yl)-10-spirocyclobutyl-5,6,8,9,10,11-hexahydro-3,8,11-triaza-benzo[a]fluoren-7-one], for which the IC50 was found to be 15 nM. For the compound `CN(C)c1ccc(-c2cc3c(cn2)CCc2c-3[nH]c3c2C(=O)NC2(CC2)C32CC2)cn1` [Example 197, 2-(1′-Amino-bicyclopropyl-1-yl)-8-(6-dimethylamino-pyridin-3-yl)-4,5-dihydro-1H-pyrrolo[2,3-f]isoquinoline-3-carboxylic acid lactam], the IC50 worked out at 38 nM.

For `CN1CC2(C1)c1[nH]c3c(c1C(=O)NC21CC1)CCc1cnc(-c2ccc(OCCN4CCOCC4)cc2)nc1-3` [Example 227, 2-[3-(1-Amino-cyclopropyl)-1-methyl-azetidin-3-yl]-8-[4-(2-morpholin-4-yl-ethoxy)-phenyl]-4,5-dihydro-1H-1,7,9-triaza-cyclopenta[a]naphthalene-3-carboxylic acid lactam], the IC50 is 7 nM. As to `COc1ncc(-c2cc3c(cn2)CCc2c-3[nH]c3c2C(=O)NC2(CC2)C32CC2)cc1F` [Example 194, 2-(1′-Amino-bicyclopropyl-1-yl)-8-(5-fluoro-6-methoxy-pyridin-3-yl)-4,5-dihydro-1H-pyrrolo[2,3-f]isoquinoline-3-carboxylic acid lactam], the half-maximal inhibitory concentration (IC50) turned out to be 42 nM. Take `C#Cc1cc(-c2cc3c(cn2)CCc2c-3[nH]c3c2C(=O)NCC32CC2)ccc1OC` [Example 120, 2-(1-Aminomethyl-cyclopropyl)-8-(3-ethynyl-4-methoxy-phenyl)-4,5-dihydro-1H-pyrrolo[2,3-f]isoquinoline-3-carboxylic acid lactam]: the IC50 worked out at 40 nM. With `O=C1NCC2(CC2)c2[nH]c3c(c21)CCc1cnc(-c2cccnc2)cc1-3` [Example 125, 2-(1-Aminomethyl-cyclopropyl)-8-pyridin-3-yl-4,5-dihydro-1H-pyrrolo[2,3-f]isoquinoline-3-carboxylic acid lactam], the half-inhibitory concentration (IC50) was 16 nM. For `COc1ccc(-c2cc3c(cn2)CCc2c4c(n(C)c2-3)CC2(CNC2)NC4=O)cc1` [Example 38, 2-(3-Amino-azetidin-3-ylmethyl)-8-(4-methoxy-phenyl)-1-methyl-4,5-dihydro-1H-pyrrolo[2,3-f]isoquinoline-3-carboxylic acid lactam hydrochloride], the IC50 came out at 20 nM. As to `COc1ccc(-c2cc3c(cn2)CCc2c-3[nH]c3c2C(=O)NC2(CC2)C3)cc1F` [Example 238, 2-(1-Amino-cyclopropylmethyl)-8-(3-fluoro-4-methoxy-phenyl)-4,5-dihydro-1H-pyrrolo[2,3-f]isoquinoline-3-carboxylic acid lactam], the IC50 is 68 nM. As for `CN1CCOc2cc(-c3cc4c(cn3)CCc3c-4[nH]c4c3C(=O)NCC43CC3)ccc21` [Example 130, 2-(1-Aminomethyl-cyclopropyl)-8-(4-methyl-3,4-dihydro-2H-benzo[1,4]oxazin-7-yl)-4,5-dihydro-1H-pyrrolo[2,3-f]isoquinoline-3-carboxylic acid lactam], the IC50 is 45 nM. For `Cn1c2c(c3c1-c1nc(-c4cccc(C#N)c4)ncc1CC3)C(=O)NC1(CNC1)C2` [Example 287, 2-(3-Amino-azetidin-3-ylmethyl)-8-(3-cyano-phenyl)-1-methyl-4,5-dihydro-1H-1,7,9-triaza-cyclopenta[a]naphthalene-3-carboxylic acid lactam hydrochloride] the value was 25 nM; for `COc1ccc(-c2ncc3c(n2)-c2[nH]c4c(c2CC3)C(=O)NCC42CNC2)cc1F` [Example 268, 2-(3-Aminomethyl-azetidin-3-yl)-8-(3-fluoro-4-methoxy-phenyl)-4,5-dihydro-1H-1,7,9-triaza-cyclopenta[a]naphthalene-3-carboxylic acid lactan hydrochloride], 8 nM. For `CN1CCN(c2c(F)cc(-c3cc4c(cn3)CCc3c-4[nH]c4c3C(=O)NCC43CC3)cc2C#N)CC1` [Example 317, 3-Fluoro-2-(4-methyl-piperazin-1-yl)-10-spirocyclopropyl-5-(7-oxo-6,7,8,9,10,11-hexahydro-5H-3,8,11-triaza-benzo[a]fluoren-2-yl)-benzonitrile], the IC50 was 51 nM.

Regarding `Cn1c2c(c3c1-c1cc(-c4ccc(F)nc4)ncc1CC3)C(=O)NC1(CNC1)C2` [Example 134, 2-(3-Amino-azetidin-3-ylmethyl)-8-(6-fluoro-pyridin-3-yl)-1-methyl-4,5-dihydro-1H-pyrrolo[2,3-f]isoquinoline-3-carboxylic acid lactam hydrochloride], the IC50 amounted to 20 nM. As for `CC(C)(N)C#Cc1ccc(-c2cc3c(cn2)CCc2c-3[nH]c3c2C(=O)NC2(CC2)C3)cc1` [Example 82, 2-(1-Amino-cyclopropylmethyl)-8-[4-(3-amino-3-methyl-but-1-ynyl)-phenyl]-4,5-dihydro-1H-pyrrolo[2,3-f]isoquinoline-3-carboxylic acid lactam], the IC50 turned out to be 24 nM. As for `CC(C)(O)CCc1ccc(-c2cc3c(cn2)CCc2c-3[nH]c3c2C(=O)NCC32CC2)cc1` [Example 126, 2-(1-Aminomethyl-cyclopropyl)-8-[4-(3-hydroxy-3-methyl-butyl)-phenyl]-4,5-dihydro-1H-pyrrolo[2,3-f]isoquinoline-3-carboxylic acid lactam], the IC50 came to 34 nM. Take `CC(C)N1CCN(c2ccc(-c3cc4c(cn3)CCc3c-4[nH]c4c3C(=O)NCC43CC3)cc2C#N)CC1` [Example 314, 2-(4-Isopropyl-piperazin-1-yl)-10-spirocyclopropyl-5-(7-oxo-6,7,8,9,10,11-hexahydro-5H-3,8,11-triaza-benzo[a]fluoren-2-yl)-benzonitrile]: the IC50 worked out at 12 nM. On to `COc1ccc(-c2cc3c(cn2)CCc2c-3[nH]c3c2C(=O)NC2(CC2)C32CC2)cn1` [Example 199, 2-(1′-Amino-bicyclopropyl-1-yl)-8-[6-methoxy-pyridin-3-yl]-4,5-dihydro-1H-pyrrolo[2,3-f]isoquinoline-3-carboxylic acid lactam], for which the IC50 turned out to be 23 nM.

As to `CN1CC2(C1)c1[nH]c3c(c1C(=O)NC21CC1)CCc1cnc(-c2ccc(F)nc2)cc1-3` [Example 223, 2-[3-(1-Amino-cyclopropyl)-1-methyl-azetidin-3-yl]-8-(6-fluoro-pyridin-3-yl)-4,5-dihydro-1H-pyrrolo[2,3-f]isoquinoline-3-carboxylic acid lactam], the IC50 was below 3 nM. For `Cc1ccc(-c2cc3c(cn2)CCc2c-3[nH]c3c2C(=O)NCC32CC2)cn1` [Example 111, 2-(1-Aminomethyl-cyclopropyl)-8-(6-methyl-pyridin-3-yl)-4,5-dihydro-1H-pyrrolo[2,3-f]isoquinoline-3-carboxylic acid lactam] the value was 5 nM.
